For this assay, the system named is R223X stop codon in the mutated luciferase gene, ADXC8 luciferase reporter cell line. The experiment in a line: cells. Format: cell-based. To be noted: for Emax / EC (100% of 200 uM G418 response): 24 h; for Emax: read-out: Fold Over Control, maximum fold response relative to 200 μM G418; for EC (100% of 200 uM G418 response): read-out: pC100%, negative logarithm of the concentration giving the same response as 200 μM G418.

A value given as a limit tells only on which side of the number the result lay.

In the case of `Nc1nc(N)c2cccnc2n1` [pyrido[2,3-d]pyrimidine-2,4-diamine, reference compound], for the setting “ADXC8 cells, 24 hours”, the Emax lay in the range of 0 to 100% and the EC (100% of 200 uM G418 response) was > 100 µM. Moreover, the pC100% response result (assayed at a concentration of 300 μM, C100% = concentration giving the same response as 200 μM G418) is “not reached”.

Take `CN1CCC(Nc2nc(N)c3ccc(-c4cc(F)ccc4F)nc3n2)CC1` [Example 69]: where the note is “ADXC8 cells, 24 hours”, the Emax fell in the range of 100 to 3000% and the EC (100% of 200 uM G418 response) lay within 1 to 10 µM. For the molecule `Cc1cc(C)c2c(N)nc(NC3CCN(Cc4ccc(C#N)cc4O)CC3)nc2n1` [Example 567], where the note is “ADXC8 cells, 24 hours”, the Emax was 100 to 3000% and the EC (100% of 200 uM G418 response) is 0.1 to 1 µM. As to `Cc1cc(C)c2c(N)nc(N[C@H]3CNC[C@@H]3O)nc2n1` [Example 293], under “ADXC8 cells, 24 hours”, the EC (100% of 200 uM G418 response) lay in the range of 0.1 to 1 µM. As for `Cc1cc(C)c2c(N)nc(NC3CCN(Cc4cccc(S(C)(=O)=O)c4)CC3)nc2n1` [Example 496], under “ADXC8 cells, 24 hours”, the Emax was in the range of 100 to 3000% and the EC (100% of 200 uM G418 response) was 10 to 100 µM. As to `CC(=O)NCCNc1nc(NC2CCN(C)CC2)nc2nc(C)cc(C)c12` [Example 355], for the setting “ADXC8 cells, 24 hours”, the Emax was 0 to 100% and the EC (100% of 200 uM G418 response) was > 31.6 µM. For `CNC(=O)c1ccc(-c2ccc3c(N)nc(NC4CCN(C)CC4)nc3n2)cc1` [Example 77], in that order: 0 to 100% and > 100 µM. In the case of `CNc1nc(N[C@H]2CNC[C@@H]2O)nc2nc(C)cc(C)c12` [Example 325], the EC (100% of 200 uM G418 response) (ADXC8 cells, 24 hours) is 1 to 10 µM. `Cc1cc(C)c2c(N)nc(NCC3CN(C)CCO3)nc2n1` (stereo not drawn) [Example 152]: under “ADXC8 cells, 24 hours”, the Emax was in the range of 100 to 3000% and the EC (100% of 200 uM G418 response) fell in the range of 10 to 100 µM. For the molecule `Cc1cc(C)c2c(N)nc(N[C@H]3CCCC[C@@H]3N(C)C)nc2n1` [Example 155], for the setting “ADXC8 cells, 24 hours”, the Emax fell in the range of 0 to 100% and the EC (100% of 200 uM G418 response) was > 31.6 µM. For the molecule `Cc1c2c(nc3nc(N[C@H]4CNC[C@@H]4O)nc(N)c13)CCC2` [Example 582], where the note is “ADXC8 cells, 24 hours”, the Emax was 100 to 3000% and the EC (100% of 200 uM G418 response) fell in the range of 0.01 to 0.1 µM. As to `Cc1cc(C)c2c(N)nc(NC[C@@H]3CCCN3)nc2n1` [Example 182], where the note is “ADXC8 cells, 24 hours”, the Emax lay within 0 to 100% and the EC (100% of 200 uM G418 response) was > 31.6 µM.

Consider `Cc1cc(C)c2c(N)nc(NC3CCN(Cc4cccc(F)c4)CC3)nc2n1` [Example 466], for which, for the setting “ADXC8 cells, 24 hours”, the Emax is 100 to 3000% and the EC (100% of 200 uM G418 response) was in the range of 1 to 10 µM. For `CNC(=O)c1ccc(CN2CCC(Nc3nc(N)c4c(C)cc(C)nc4n3)CC2)cc1` [Example 475], in that order: 100 to 3000% and 10 to 100 µM. For the molecule `CN1CCC(Nc2nc(N(C)C)c3cccnc3n2)CC1` [Example 40, N^4,N^4-dimethyl-N^2-(1-methylpiperidin-4-yl)pyrido[2,3-d]pyrimidine-2,4-diamine], where the note is “ADXC8 cells, 24 hours”, the Emax was in the range of 100 to 3000% and the EC (100% of 200 uM G418 response) was 10 to 100 µM. In the same order, the values of `CN1CCC(Nc2nc(N)c3cc(C#N)cnc3n2)CC1` [Example 277] are 0 to 100% and > 31.6 µM.

Take `CNc1nc(N[C@@H]2C[C@H](C)N(C)C2)nc2nc(C)cc(C)c12` [Example 367]: the EC (100% of 200 uM G418 response) (ADXC8 cells, 24 hours) was in the range of 1 to 10 µM. On to `Cc1nc2nc(NC3CCN(C)CC3)nc(N)c2c2ccccc12` [Example 9, 6-methyl-N^3-(1-methylpiperidin-4-yl)pyrimido[4,5-c]isoquinoline-1,3-diamine], for which, under “ADXC8 cells, 24 hours”, the Emax was 100 to 3000% and the EC (100% of 200 uM G418 response) lay in the range of 1 to 10 µM.

For `Cc1nc2nc(NC3CCN(C)CC3)nc(N)c2c(C)c1C` [Example 121, 5,6,7-trimethyl-N2-(1-methylpiperidin-4-yl)pyrido[2,3-d]pyrimidine-2,4-diamine], for the setting “ADXC8 cells, 24 hours”, the Emax lay in the range of 100 to 3000% and the EC (100% of 200 uM G418 response) is 1 to 10 µM. For `CC#Cc1ccnc2nc(NC3CCN(C)CC3)nc(N)c12` [Example 251, N^2-(1-methylpiperidin-4-yl)-5-(prop-1-yn-1-yl)pyrido[2,3-d]pyrimidine-2,4-diamine], for the setting “ADXC8 cells, 24 hours”, the Emax is 100 to 3000% and the EC (100% of 200 uM G418 response) is 10 to 100 µM.

For the molecule `Cc1cc(C)c2c(NCCS(C)(=O)=O)nc(NC3CCN(C)CC3)nc2n1` [Example 356], for the setting “ADXC8 cells, 24 hours”, the Emax was 0 to 100% and the EC (100% of 200 uM G418 response) is > 31.6 µM.

As for `COCc1ccc(CN2CCC(Nc3nc(N)c4c(C)cc(C)nc4n3)CC2)cc1` [Example 488], for the setting “ADXC8 cells, 24 hours”, the Emax was 100 to 3000% and the EC (100% of 200 uM G418 response) was in the range of 1 to 10 µM.

In the case of `Cc1cc(C)c2c(N)nc(NCCN3CC4(CCOC4)C3)nc2n1` [Example 183], under “ADXC8 cells, 24 hours”, the Emax lay in the range of 0 to 100% and the EC (100% of 200 uM G418 response) was > 31.6 µM. With `CC#Cc1ccc2c(N)nc(NC3CCN(C)CC3)nc2n1` [Example 283], for the setting “ADXC8 cells, 24 hours”, the EC (100% of 200 uM G418 response) is 1 to 10 µM. On the same count and under the same terms, as for `Cc1cc(C)c2c(N)nc(NC[C@@H]3CCNC3)nc2n1` [Example 217], the figure is 1 to 10 µM. As to `Cc1cc(C)c2c(N)nc(NC3CCNC[C@@H]3F)nc2n1` (stereo partly drawn) [Example 206], for the setting “ADXC8 cells, 24 hours”, the Emax fell in the range of 100 to 3000% and the EC (100% of 200 uM G418 response) lay in the range of 1 to 10 µM. In the same order, the values of `Cc1cc(C)c2c(NCc3ccccc3)nc(NC3CCN(C)CC3)nc2n1` [Example 268] are 100 to 3000% and 1 to 10 µM. In the same order, the values of `Cc1cc(C)c2c(N)nc(NC3CCN(Cc4c(F)cccc4F)CC3)nc2n1` [Example 479] are 100 to 3000% and 1 to 10 µM. In the same order, the values of `Cc1cc(C)c2c(N)nc(NC3CCN(Cc4cccc(C(=O)N(C)C)c4)CC3)nc2n1` [Example 462] are 0 to 100% and > 31.6 µM.

As for `Cc1cc(C)c2c(N)nc(NCC3CNC3)nc2n1` [Example 199], where the note is “ADXC8 cells, 24 hours”, the Emax was 0 to 100% and the EC (100% of 200 uM G418 response) was > 31.6 µM.

Regarding `CNc1nc(NC2C3CNC2C3)nc2nc(C)cc(C)c12` (single isomer, unassigned) [Example 448], for the setting “maximum fold response relative to 200 μM G418, ADXC8 cells, 24 hours”, the “Fold Over Control” value is “# (Fold over Ctrl ≥ 0 ≤ 1)”. In addition, for the setting “negative logarithm of the concentration giving the same response as 200 μM G418, ADXC8 cells, 24 hours”, the pC100% entry is reported as “* (pC100 ≤ 4.5)”.

In the case of `Cc1cccc(CN2CCC(Nc3nc(N)c4c(C)cc(C)nc4n3)CC2)c1` [Example 549], under “ADXC8 cells, 24 hours”, the Emax was 100 to 3000% and the EC (100% of 200 uM G418 response) lay in the range of 1 to 10 µM. In the case of `Cc1cc(C)c2c(N)nc(NC[C@H]3CN(C(=O)OC(C)(C)C)CCO3)nc2n1` [Example 138], where the note is “ADXC8 cells, 24 hours”, the Emax fell in the range of 0 to 100% and the EC (100% of 200 uM G418 response) is > 100 µM. Turning to `Cc1cc(C)c2c(N)nc(NCCCN3CCOCC3)nc2n1` [Example 6, 5,7-dimethyl-N^2-(3-morpholinopropyl)pyrido[2,3-d]pyrimidine-2,4-diamine], for the setting “ADXC8 cells, 24 hours”, the Emax lay in the range of 100 to 3000% and the EC (100% of 200 uM G418 response) was in the range of 10 to 100 µM. In the same order, the values of `Cc1cc(C)c2c(N)nc(NCCN3CC4(CCCO4)C3)nc2n1` [Example 167] are 0 to 100% and > 31.6 µM. Consider `Cc1cc(C)c2c(N)nc(NC3CCN(Cc4ccc(C#N)cc4F)CC3)nc2n1` [Example 571], for which, for the setting “ADXC8 cells, 24 hours”, the Emax was 100 to 3000% and the EC (100% of 200 uM G418 response) lay in the range of 1 to 10 µM. In the case of `CNc1nc(NCCCN2CCOCC2)nc2nc3c(c(C)c12)CCC3` [Example 296], the EC (100% of 200 uM G418 response) (ADXC8 cells, 24 hours) was 0.1 to 1 µM. In the case of `CNc1cc(N[C@@H]2CCNC2)nc2nc(C)cc(C)c12` [Example 256, (R)—N^4,5,7-trimethyl-N^2-(pyrrolidin-3-yl)-1,8-naphthyridine-2,4-diamine], where the note is “ADXC8 cells, 24 hours”, the EC (100% of 200 uM G418 response) fell in the range of 0.1 to 1 µM. Turning to `Cc1cc(C)c2c(N)nc(NCCCNCC(F)F)nc2n1` [Example 193], under “ADXC8 cells, 24 hours”, the Emax is 100 to 3000% and the EC (100% of 200 uM G418 response) is 10 to 100 µM.

The values are drawn from patent US20260234144A1 (TAY THERAPEUTICS LIMITED, priority 2023, published 2026).
